Reference: paper PMC3913857, “Regorafenib in Japanese patients with solid tumors: phase I study of safety, efficacy, and pharmacokinetics” (Investigational New Drugs, 2013)
Like-named read-outs stand apart in the source and are kept apart here.

How the values were obtained:
[1] = Safety: adverse events (NCI CTCAE v3.0) and laboratory toxicities, Japan phase I study; design: species or system Japanese patients; conditions: in vivo
Procedure: (§1) All patients who received at least one dose of regorafenib were eligible for safety analyses and were included in the efficacy analyses if they also had post-baseline efficacy data. For the safety analysis, physical examination, vital signs, use of concomitant medications, and laboratory test data were reported, and patients were routinely monitored for adverse events, which were recorded with severity and relationship to study medication according to the National Cancer Institute Common Terminology Criteria for Adverse Events version 3.0. Tumor response was assessed every 8 weeks for the first 6 cycles and every 12 weeks after Cycle 6 by Response Evaluation Criteria in Solid Tumors version 1.0, using the same imaging techniques and methods as at baseline. The response rate was defined as the proportion of patients whose best response was a confirmed partial or complete response.
Unacceptable toxicity was defined as any of the following events occurring during Cycle 1 and considered to be related to study drug: grade 4 neutropenia (for ≥7 days); febrile neutropenia with grade 4 neutropenia and fever; grade 4 thrombocytopenia; grade 3 or 4 nonhematologic toxicities (excluding events considered to be tolerable by the investigator). If two of the first three or three of the first six patients treated with regorafenib experienced unacceptable toxicities during Cycle 1, the safety data were reviewed by the Data Monitoring Committee, which considered whether protocol amendments were needed to address any safety concerns before subsequent patients were treated.

[2] = design: method as in PMID 22421192, PMID 22568966; conditions: European phase I and II studies; cited from earlier work
clinical = assay: clinical; design: species or system Japanese patients; conditions: in vivo
Procedure: Patients who provided at least one evaluable pharmacokinetic sample were eligible for pharmacokinetic analyses.
Plasma concentrations of regorafenib and its metabolites were determined by fully validated liquid chromatography–tandem mass spectrometry after protein precipitation with acetonitrile/ammonium acetate buffer containing the internal standards [^2H3 ^15N] BAY 73-4506 (for regorafenib), [^2H3 ^15N] […] BAY 81-8752 (for the M5 metabolite).

cytochrome p450 3A4 = tested on: cytochrome p450 3A4; design: method as in ref 11 = [11]; 11. Bayer HealthCare AG, data on file; conditions: in vitro; cited from earlier work
[3] = tested on: UDP-glucuronosyltransferase 1A9; design: method as in ref 11 = [11]; 11. Bayer HealthCare AG, data on file; conditions: in vitro, glucuronidation; cited from earlier work
[4] = design: method as in PMID 22421192; conditions: European phase I study, 160 mg cohort only, n = 12, cited from earlier work
[5] = tested on: treatment-refractory advanced solid tumors; assay: Tumor response (RECIST version 1.0), Japan phase I study; assay type: in vivo, Japanese patients
Procedure: as §1

[6] = design: method as in ref 7 = [7]; 7. Eisen T, Joenssu H, Nathan P Harper P, Wojtukiewicz M, Nicholson S, Bahl A, Tomczak P, Wagner A, Quinn D (2011) Phase II trial of the oral multi kinase inhibitor regorafenib (BAY 73-4506) as first-; conditions: European phase II study, advanced renal cell carcinoma, n = 49, cited from earlier work
[7] = any time after start of study treatment

## CNC(=O)c1cc(Oc2ccc(NC(=O)Nc3ccc(Cl)c(C(F)(F)F)c3)c(F)c2)ccn1 [Regorafenib]
[1]; human
  Biochemical abnormality: alkaline phosphatase (ALP) elevation: 93%
  Biochemical abnormality: hypoalbuminemia: 93%
  Biochemical abnormality: hypophosphatemia: 80%
  Biochemical abnormality: proteinuria: 80%
  Biochemical toxicity: ALP elevation, any grade: 14 (93) n (%)
  Biochemical toxicity: ALP elevation, grade 3 or 4: 2 (13) n (%)
  Biochemical toxicity: ALT elevation, any grade: 12 (80) n (%)
  Biochemical toxicity: ALT elevation, grade 3 or 4: 3 (20) n (%)
  Biochemical toxicity: AST elevation, any grade: 13 (87) n (%)
  Biochemical toxicity: AST elevation, grade 3 or 4: 3 (20) n (%)
  Biochemical toxicity: Hypoalbuminemia, any grade: 14 (93) n (%)
  Biochemical toxicity: Hypoalbuminemia, grade 3 or 4: 0 n (%)
  Biochemical toxicity: Hypocalcemia, any grade: 9 (60) n (%)
  Biochemical toxicity: Hypocalcemia, grade 3 or 4: 0 n (%)
  Biochemical toxicity: Hypophosphatemia, any grade: 12 (80) n (%)
  Biochemical toxicity: Hypophosphatemia, grade 3 or 4: 4 (27) n (%)
  Biochemical toxicity: Proteinuria, grade 3 or 4: 1 (7) n (%)
  Incidence of biochemical toxicities: ALT, grade 3/4: 20%
  Incidence of biochemical toxicities: AST, all grades: 87%
  Incidence of biochemical toxicities: AST, grade 3/4: 20%
  Patients with at least one drug-related treatment-emergent adverse event of any grade: 15 patients
  Treatment discontinuation for adverse event: anemia: 1 n
  Treatment discontinuation for adverse event: liver enzyme elevation: 1 n
[1]; human, 1 cycle
  Grade of drug-related adverse event resulting in treatment reduction or interruption: ALT elevation: 3
  Grade of drug-related adverse event resulting in treatment reduction or interruption: AST elevation: 3
  Grade of drug-related adverse event resulting in treatment reduction or interruption: Hypertension: 2
  Grade of drug-related adverse event resulting in treatment reduction or interruption: Leukopenia: 2
  Grade of drug-related adverse event resulting in treatment reduction or interruption: Neutropenia: 3
  Grade of drug-related adverse event resulting in treatment reduction or interruption: Thrombocytopenia: 2
[1]; human, 2 cycle
  Grade of drug-related adverse event resulting in treatment reduction or interruption: ALT elevation: 4
  Grade of drug-related adverse event resulting in treatment reduction or interruption: Hand–foot skin reaction: 3
[1]; human, 3 cycle
  Grade of drug-related adverse event resulting in treatment reduction or interruption: Dental pulpitis: 2
  Grade of drug-related adverse event resulting in treatment reduction or interruption: Diarrhea: 3
  Grade of drug-related adverse event resulting in treatment reduction or interruption: Hand–foot skin reaction: 1
  Grade of drug-related adverse event resulting in treatment reduction or interruption: Hand–foot skin reaction (event cell empty, from line above): 1
[1]; human, 7 cycle
  Grade of drug-related adverse event resulting in treatment reduction or interruption: Hand–foot skin reaction: 3
[1]; human, 9 cycle
  Grade of drug-related adverse event resulting in treatment reduction or interruption: Hand–foot skin reaction (event cell empty, from line above): 1
  Grade of drug-related adverse event resulting in treatment reduction or interruption: Proteinuria: 3
[1]; human, 10 cycle
  Grade of drug-related adverse event resulting in treatment reduction or interruption: Proteinuria: 2
[1]; human, 11 cycle
  Grade of drug-related adverse event resulting in treatment reduction or interruption: Back pain: 3
[1]; human, 18 cycle
  Grade of drug-related adverse event resulting in treatment reduction or interruption: Gingivitis: 2
[1]
  Changes in vital signs or electrocardiogram findings: No clear changes
  Cycle delay (start of next cycle delayed longer than 7 days) because of adverse events: four
  Dose reduction because of adverse events: six
  Drug-related adverse events leading to dose interruption or dose reduction: eight
  Interruption of regorafenib during daily treatment because of adverse events: seven
  Serious adverse events: six
  Serious adverse events deemed treatment-related: three
  Treatment-related deaths: No treatment-related deaths
[2]
  Frequency of hand–foot skin reaction: 67–71%
clinical; human, po, 160 mg
  AUC: 34.6 µg·h/mL
  AUC(0-t): 16.4 µg·h/mL
  Cmax: 1.37 µg/mL
  t 1/2 (terminal half life): 27.4 (29.9) h
  t max: 4 h
clinical; human, po, 160 mg, t 1/2 (terminal half life)
  half-life: ~27 h
clinical; human, Cycle 1 day 21, regorafenib 160 mg once daily for 21 days, N = 12, geometric mean (% coefficient of variance), read-out: AUC0–24
  AUC(0-t): 33 µg·h/mL
clinical; human, Cycle 1 day 21, regorafenib 160 mg once daily for 21 days, N = 12, geometric mean (% coefficient of variance), read-out: C max
  Cmax: 2.52 µg/mL
clinical; human, Cycle 1 day 21, regorafenib 160 mg once daily for 21 days, N = 12, geometric mean (% coefficient of variance), read-out: t 1/2 (terminal half life) (converted)
  half-life: 30.4 h
clinical; human, Cycle 1 day 21, regorafenib 160 mg once daily for 21 days, N = 12, median (range), read-out: t max
  t max: 3.6 h
clinical
  Change in t max and t 1/2 between single dosing and 21-day multiple dosing: no significant change
Cytochrome p450 3A4
  Metabolizing enzyme: metabolized by cytochrome p450 3A4
[3]
  Metabolizing enzyme: UDP-glucuronosyltransferase 1A9 glucuronidation
[4]; [7]
  Incidence of biochemical toxicities: ALT, all grades: 75%
  Incidence of biochemical toxicities: ALT, grade 3/4: 25%
  Incidence of biochemical toxicities: AST, all grades: 75%
  Incidence of biochemical toxicities: AST, grade 3/4: 25%
[4]
  Adverse events: Alopecia, all grades: 33%
  Adverse events: Alopecia, grade 3/4: 0%
  Adverse events: Anorexia, all grades: 50%
  Adverse events: Anorexia, grade 3/4: 8%
  Adverse events: Diarrhea, all grades: 50%
  Adverse events: Diarrhea, grade 3/4: 17%
  Adverse events: Fatigue, all grades: 17%
  Adverse events: Fatigue, grade 3/4: 0%
  Adverse events: Hand–foot skin reaction, all grades: 67%
  Adverse events: Hand–foot skin reaction, grade 3/4: 25%
  Adverse events: Hypertension, all grades: 50%
  Adverse events: Hypertension, grade 3/4: 17%
  Adverse events: Rash, all grades: 50%
  Adverse events: Rash, grade 3/4: 8%
  Adverse events: Voice changes/hoarseness, all grades: 42%
  Adverse events: Voice changes/hoarseness, grade 3/4: 0%
[5]; 15 patients
  Complete response: no patient
[5]; 15 patients, 95 % confidence interval 0.2–31.9 %
  Overall response rate: 7%
[5]; 95 % confidence interval 1.9–12.4 months
  Median time to progression: 3.7 months
[5]; one patient, pancreatic neuroendocrine tumor
  Duration of response (partial response): 10.5 months
[6]; [7]
  Incidence of biochemical toxicities: ALT, all grades: 39%
  Incidence of biochemical toxicities: ALT, grade 3/4: 2%
  Incidence of biochemical toxicities: AST, all grades: 41%
  Incidence of biochemical toxicities: AST, grade 3/4: 2%
[6]; untreated
  Adverse events: Alopecia, all grades: 45%
  Adverse events: Alopecia, grade 3/4: 0%
  Adverse events: Anorexia, all grades: 29%
  Adverse events: Anorexia, grade 3/4: 6%
  Adverse events: Diarrhea, all grades: 45%
  Adverse events: Diarrhea, grade 3/4: 10%
  Adverse events: Fatigue, all grades: 53%
  Adverse events: Fatigue, grade 3/4: 8%
  Adverse events: Hand–foot skin reaction, all grades: 71%
  Adverse events: Hand–foot skin reaction, grade 3/4: 33%
  Adverse events: Hypertension, all grades: 49%
  Adverse events: Hypertension, grade 3/4: 6%
  Adverse events: Rash, all grades: 39%
  Adverse events: Rash, grade 3/4: 6%
  Adverse events: Voice changes/hoarseness, all grades: 35%
  Adverse events: Voice changes/hoarseness, grade 3/4: 0%
